Ten compounds from ChEMBL document CHEMBL3580627, “Dibenzazepines and dibenzoxazepines as sodium channel blockers” (Bioorg Med Chem Lett, 2014) can be followed below.

Structures are written as SMILES. Converted amounts (≈) assume the structure as drawn. A value given as a limit tells only on which side of the number the result lay.

The term fraction remaining denotes what is left of the initial amount, in per cent. In general, IC50 refers to the concentration that inhibits the measured activity by half. Higher therefore signals weaker potency. For orientation: Ki means the dissociation constant of the complex between target and ligand, obtained from inhibition or displacement. A high value points to weaker binding.

Series [1] in a line: Kinetic solubility of the compound at pH 6.8. It is filed as physicochemical. The conditions noted are these: buffer, read-out: Kinetic_solubility.
A short description of series [2]: Kinetic solubility of the compound at pH 1.2. It is filed as physicochemical. The conditions noted are these: buffer, read-out: Kinetic_solubility.
Series [3] is described as follows: in vitro. The note with it: human, liver microsomes.
Description: Metabolic stability in human liver microsomes assessed as compound remaining at 1 uM after 30 mins
The nature of series [4]: in vitro. The note with it: rat, liver microsomes. For orientation: Microsomes from liver hold many membrane-bound enzymes, among them those of drug oxidation.
Description: Metabolic stability in rat liver microsomes assessed as compound remaining at 1 uM after 30 mins
For series [5], the target named is T1, Sodium channel protein type 9 subunit alpha (Homo sapiens, UniProt Q15858). Nature of the series: Inhibition of Nav1.7 (unknown origin) expressed in CHO cells after 45 mins by FLIPR assay. It is filed as cell-based.
T1 sequence (Q15858 whole entry): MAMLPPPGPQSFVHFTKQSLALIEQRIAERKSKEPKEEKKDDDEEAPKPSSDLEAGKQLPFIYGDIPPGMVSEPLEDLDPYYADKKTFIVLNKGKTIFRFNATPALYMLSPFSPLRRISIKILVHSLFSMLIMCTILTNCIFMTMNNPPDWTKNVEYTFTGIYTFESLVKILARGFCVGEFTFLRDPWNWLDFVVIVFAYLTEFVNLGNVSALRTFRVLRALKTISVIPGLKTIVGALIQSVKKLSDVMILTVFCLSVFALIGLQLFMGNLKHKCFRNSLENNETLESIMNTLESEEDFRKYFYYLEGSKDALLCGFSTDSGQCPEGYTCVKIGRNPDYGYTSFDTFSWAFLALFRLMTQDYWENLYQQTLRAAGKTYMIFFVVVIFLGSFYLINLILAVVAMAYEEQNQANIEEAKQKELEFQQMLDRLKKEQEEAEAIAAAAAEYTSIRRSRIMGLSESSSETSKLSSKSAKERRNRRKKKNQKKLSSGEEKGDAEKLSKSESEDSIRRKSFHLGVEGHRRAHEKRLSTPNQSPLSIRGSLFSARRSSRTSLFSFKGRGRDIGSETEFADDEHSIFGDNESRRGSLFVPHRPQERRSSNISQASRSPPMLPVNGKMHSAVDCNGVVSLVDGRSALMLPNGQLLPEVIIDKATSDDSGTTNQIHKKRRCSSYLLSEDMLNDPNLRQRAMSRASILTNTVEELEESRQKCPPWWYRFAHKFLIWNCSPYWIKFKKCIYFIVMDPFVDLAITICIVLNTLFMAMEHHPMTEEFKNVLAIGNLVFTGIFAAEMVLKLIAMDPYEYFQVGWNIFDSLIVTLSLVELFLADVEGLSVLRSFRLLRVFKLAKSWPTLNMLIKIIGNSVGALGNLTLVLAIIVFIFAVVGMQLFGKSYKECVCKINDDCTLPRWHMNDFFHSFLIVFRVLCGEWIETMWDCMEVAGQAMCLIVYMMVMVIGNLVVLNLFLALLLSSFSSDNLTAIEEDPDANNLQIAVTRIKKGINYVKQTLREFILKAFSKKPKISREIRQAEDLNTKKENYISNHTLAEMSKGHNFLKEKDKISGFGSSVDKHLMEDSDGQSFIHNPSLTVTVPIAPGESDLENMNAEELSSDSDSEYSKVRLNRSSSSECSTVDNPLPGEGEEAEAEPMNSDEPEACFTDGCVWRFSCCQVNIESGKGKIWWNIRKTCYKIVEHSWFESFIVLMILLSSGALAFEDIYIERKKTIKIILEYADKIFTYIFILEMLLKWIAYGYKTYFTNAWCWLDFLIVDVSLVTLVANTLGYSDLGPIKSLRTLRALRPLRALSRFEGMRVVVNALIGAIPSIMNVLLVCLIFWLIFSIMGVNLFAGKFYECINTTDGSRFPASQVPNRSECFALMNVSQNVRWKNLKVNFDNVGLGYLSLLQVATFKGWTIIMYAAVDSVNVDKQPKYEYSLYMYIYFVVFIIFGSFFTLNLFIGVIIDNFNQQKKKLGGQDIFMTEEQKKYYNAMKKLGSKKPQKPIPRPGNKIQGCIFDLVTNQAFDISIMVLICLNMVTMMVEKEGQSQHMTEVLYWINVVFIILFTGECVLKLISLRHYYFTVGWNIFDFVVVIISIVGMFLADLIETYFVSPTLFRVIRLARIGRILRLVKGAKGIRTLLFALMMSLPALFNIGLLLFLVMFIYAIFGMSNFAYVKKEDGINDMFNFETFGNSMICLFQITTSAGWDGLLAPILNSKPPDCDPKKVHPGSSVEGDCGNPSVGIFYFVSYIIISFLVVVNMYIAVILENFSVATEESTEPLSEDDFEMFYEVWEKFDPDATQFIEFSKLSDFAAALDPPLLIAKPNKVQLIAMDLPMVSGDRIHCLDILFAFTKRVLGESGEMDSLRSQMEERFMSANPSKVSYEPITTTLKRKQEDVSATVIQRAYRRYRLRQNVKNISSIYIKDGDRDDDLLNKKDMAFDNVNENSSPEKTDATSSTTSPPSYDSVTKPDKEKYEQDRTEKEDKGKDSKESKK
Series [6] concerns the target T1, Sodium channel protein type 9 subunit alpha. The series is described as follows: Inhibition of Nav1.7 (unknown origin) by electrophysiological assay.

Take `NC(=O)N1c2ccccc2C=Cc2ccccc21` [CARBAMAZEPINE]: the solubility kinetic in series [1] worked out at 74 µM (≈ 17.5 µg/mL); in series [2], 75 µM (≈ 17.7 µg/mL). The amount remaining at 0.5 h, 1 µM in “in vitro [3]” came to 38%; in the series “in vitro [4]” it was 37%.

As to `NC(=O)CN1Cc2cc(-c3cccc([C@H](O)CO)n3)ccc2Oc2ccc(C(F)(F)F)cc21`, the solubility kinetic in series [1] worked out at 1 µM (≈ 0.459 µg/mL); in series [2], 80 µM (≈ 36.8 µg/mL). In addition, the IC50 in series [5] is 1800 nM. The fraction remaining at 0.5 h, 1 µM was 83% in the series “in vitro [3]” and 91% in “in vitro [4]”.

In the case of `OC[C@@H](O)c1cccc(-c2ccc3c(c2)CNc2cc(C(F)(F)F)ccc2O3)n1`, the results for the solubility kinetic in series [1] and in series [2] were 12 µM (≈ 4.83 µg/mL) and 80 µM (≈ 32.2 µg/mL), respectively.

For `CN1c2ccc(-c3cccc([C@H](O)CO)n3)cc2CCc2cc(C(F)(F)F)ccc21`, the solubility kinetic in series [1] amounted to 0.1 µM (≈ 0.0414 µg/mL); in series [2] it was 60 µM (≈ 24.9 µg/mL). The share remaining at 0.5 h, 1 µM in “in vitro [3]” came to 79%; in the series “in vitro [4]”, 72%.

Regarding `CCN1c2ccc(Cl)cc2CCc2cc(-c3cccc(C(N)=O)n3)ccc21`, in series [5], the IC50 was greater than 10000 nM. Moreover, the solubility kinetic in series [2] was 0.2 µM (≈ 0.0756 µg/mL).

`CN1Cc2cc(C(F)(F)F)ccc2Oc2ccc(-c3cccc([C@H](O)CO)n3)cc21`: the values for the solubility kinetic in series [1] and in series [2] were 6 µM (≈ 2.5 µg/mL) and 73 µM (≈ 30.4 µg/mL), respectively. In series [6], the affinity, expressed as Ki, was 560 nM. In addition, the share remaining at 0.5 h, 1 µM in the series “in vitro [3]” amounted to 91%; in “in vitro [4]” it was 74%.

With `CN1Cc2cc(-c3cccc([C@H](O)[C@@H](O)C(N)=O)n3)ccc2Oc2ccc(C(F)(F)F)cc21`, the solubility kinetic in series [1] stood at 0.8 µM (≈ 0.368 µg/mL); in series [2], 70 µM (≈ 32.2 µg/mL). Moreover, the affinity in series [6], expressed as Ki, was 920 nM. The amount remaining at 0.5 h, 1 µM is 94% in “in vitro [3]” and 93% in the series “in vitro [4]”.

`CC(=O)N1c2ccc(Cl)cc2CCc2cc(-c3cccc(C(N)=O)n3)ccc21`: the solubility kinetic amounted to 7 µM (≈ 2.74 µg/mL) in series [1] and 12 µM (≈ 4.7 µg/mL) in series [2].

Consider `NC(=O)c1cccc(-c2ccc3c(c2)CCc2cc(Cl)ccc2N3)n1`, for which the solubility kinetic in series [2] came out at 0.2 µM (≈ 0.07 µg/mL).

Take `CN1Cc2cc(-c3cccc([C@H](O)CO)n3)ccc2Oc2ccc(C(F)(F)F)cc21`: the solubility kinetic in series [1] was 0.4 µM (≈ 0.167 µg/mL); in series [2], 70 µM (≈ 29.1 µg/mL). For the same compound, the Ki in series [6] stood at 440 nM. Besides, the fraction remaining at 0.5 h, 1 µM in “in vitro [3]” amounted to 98%; in the series “in vitro [4]”, 94%.
